Source: US20250145585A1, “HETEROCYCLIC INHIBITORS OF IGF-1R FOR TREATMENT OF DISEASE” (HORIZON THERAPEUTICS IRELAND DAC, priority 2023, published 2025)
pIC50: −log10 of the molar value.

How the values were obtained:
IGF-1R [1] = biological target: T1, IGF-1R (Homo sapiens, UniProt P08069); test: Example B-1: IGF-1R Assay (PC3 cells stimulated with IGF1, AlphaLISA on cell lysates); format: cell-based; settings: compound two hours, IGF1 200 ng/mL for 30 min, read-out: IC50, Biological Activity against IGF-1R (Table B1)
T1 construct: expressed in transfected cells
T1 sequence (P08069 31-1367): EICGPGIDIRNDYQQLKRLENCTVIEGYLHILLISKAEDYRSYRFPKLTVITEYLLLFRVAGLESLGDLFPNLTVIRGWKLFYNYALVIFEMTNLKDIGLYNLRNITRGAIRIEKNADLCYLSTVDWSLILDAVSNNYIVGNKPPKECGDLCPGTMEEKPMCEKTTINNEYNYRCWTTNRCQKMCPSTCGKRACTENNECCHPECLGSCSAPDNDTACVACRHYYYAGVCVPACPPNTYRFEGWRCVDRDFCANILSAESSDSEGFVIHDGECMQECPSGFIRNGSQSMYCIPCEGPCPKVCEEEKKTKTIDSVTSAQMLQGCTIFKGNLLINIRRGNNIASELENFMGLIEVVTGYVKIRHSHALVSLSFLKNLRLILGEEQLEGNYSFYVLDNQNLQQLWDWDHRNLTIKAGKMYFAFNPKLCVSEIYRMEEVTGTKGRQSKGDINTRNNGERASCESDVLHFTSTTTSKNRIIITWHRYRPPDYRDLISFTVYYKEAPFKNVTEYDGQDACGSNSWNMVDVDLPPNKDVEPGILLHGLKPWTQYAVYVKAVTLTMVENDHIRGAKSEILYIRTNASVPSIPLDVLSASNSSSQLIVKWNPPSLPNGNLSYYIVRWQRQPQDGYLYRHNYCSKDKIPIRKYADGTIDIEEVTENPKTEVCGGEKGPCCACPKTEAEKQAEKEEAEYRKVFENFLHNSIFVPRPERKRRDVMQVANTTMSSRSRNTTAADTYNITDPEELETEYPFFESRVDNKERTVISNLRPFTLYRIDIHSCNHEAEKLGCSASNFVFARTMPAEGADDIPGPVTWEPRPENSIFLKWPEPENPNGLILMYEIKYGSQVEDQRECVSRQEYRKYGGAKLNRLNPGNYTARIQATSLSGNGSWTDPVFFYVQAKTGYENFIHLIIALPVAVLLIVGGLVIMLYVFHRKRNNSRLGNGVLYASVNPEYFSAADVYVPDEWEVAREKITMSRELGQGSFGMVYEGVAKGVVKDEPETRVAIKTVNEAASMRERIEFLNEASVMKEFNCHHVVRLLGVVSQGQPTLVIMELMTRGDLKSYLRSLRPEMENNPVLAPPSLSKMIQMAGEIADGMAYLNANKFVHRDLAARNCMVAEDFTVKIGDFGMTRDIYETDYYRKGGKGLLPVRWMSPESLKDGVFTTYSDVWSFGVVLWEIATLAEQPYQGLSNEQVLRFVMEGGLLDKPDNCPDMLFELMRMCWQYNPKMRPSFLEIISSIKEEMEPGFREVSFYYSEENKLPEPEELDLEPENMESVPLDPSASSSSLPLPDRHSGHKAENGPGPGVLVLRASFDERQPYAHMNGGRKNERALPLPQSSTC
Outline: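 PC3 cells serum-starved 2 h, treated 2 h with 3-fold serially diluted compound, then stimulated 30 min with IGF1 (200 ng/mL final). Lysates analysed by AlphaLISA; % inhibition calculated relative to vehicle and EC80 controls, IC50 derived.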

IGF-1R [2] = biological target: T1, IGF-1R; test: Example B-2: IGF-1R Assay (PathHunter cell lines, EC80 agonist challenge, chemiluminescent detection); format: cell-based; settings: PathHunter cells, compound 60 minutes at 37° C., EC80 agonist 3 hours; read-out: IC50, Biological Activity against IGF-1R (Table B2)
Outline: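 PathHunter cells were pre-incubated with compound for 60 min at 37° C (1% vehicle), then challenged with EC80 agonist for 3 h at room temperature. Chemiluminescent detection after 1 h gave % inhibition relative to EC80 and vehicle controls, from which IC50 was derived.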

| SMILES | pIC50 (IGF-1R [1]) | pIC50 (IGF-1R [2]) |
| --- | --- | --- |
| CC1(C)C(=O)N(c2ccc(SC(F)(F)F)cc2)C(=O)N1Cc1ccnc2[nH]ccc12 [Compound 1, 1-((1H-pyrrolo[2,3-b]pyridin-4-yl)methyl)-5,5-dimethyl-3-(4-((trifluoromethyl)thio)phenyl)imidazolidine-2,4-dione] | ≥ 6.30 | ≥ 6.30 |
| CC1(C)C(=O)N(c2ccc(SC(F)(F)F)cc2)C(=O)N1Cc1ccnc2c1CC(=O)N2 [Compound 12, 5,5-dimethyl-1-((2-oxo-2,3-dihydro-1H-pyrrolo[2,3-b]pyridin-4-yl)methyl)-3-(4-((trifluoromethyl)thio)phenyl)imidazolidine-2,4-dione] | ≥ 6.30 | ≥ 6.30 |
| CC1(C)C(=O)N(c2ccc(C3(C(F)(F)F)CC3)cc2)C(=O)N1Cc1ccnc2c1CC(=O)N2 [Compound 13, 5,5-dimethyl-1-((2-oxo-2,3-dihydro-1H-pyrrolo[2,3-b]pyridin-4-yl)methyl)-3-(4-(1-(trifluoromethyl)cyclopropyl)phenyl)imidazolidine-2,4-dione] | ≥ 6.30 | ≥ 6.30 |
| CC1(C)C(=O)N(c2ccc(SC(F)(F)F)cc2)C(=O)N1Cc1ccnc2c1CCN2 [Compound 16, 1-((2,3-dihydro-1H-pyrrolo[2,3-b]pyridin-4-yl)methyl)-5,5-dimethyl-3-(4-((trifluoromethyl)thio)phenyl)imidazolidine-2,4-dione] | ≥ 6.30 | ≥ 6.30 |
| CC1(C)C(=O)N(c2ccc(C3(C(F)(F)F)CC3)cc2)C(=O)N1Cc1ccnc2c1OCCN2 [Compound 17, 1-((3,4-dihydro-2H-pyrido[3,2-b][1,4]oxazin-8-yl)methyl)-5,5-dimethyl-3-(4-(1-(trifluoromethyl)cyclopropyl)phenyl) imidazolidine-2,4-dione] | ≥ 6.30 | ≥ 6.30 |
| CC1(C)C(=O)N(c2ccc(C3(C(F)(F)F)CC3)cc2)C(=O)N1Cc1ccnc2c1CCCN2 [Compound 18, 5,5-dimethyl-1-((5,6,7,8-tetrahydro-1,8-naphthyridin-4-yl)methyl)-3-(4-(1-(trifluoromethyl)cyclopropyl)phenyl) imidazolidine-2,4-dione] | ≥ 6.30 | ≥ 6.30 |
| CC1(C)C(=O)Nc2nccc(CN3C(=O)N(c4ccc(SC(F)(F)F)cc4)C(=O)C3(C)C)c21 [Compound 19, 1-((3,3-dimethyl-2-oxo-2,3-dihydro-1H-pyrrolo[2,3-b]pyridin-4-yl)methyl)-5,5-dimethyl-3-(4-((trifluoromethyl)thio)phenyl)imidazolidine-2,4-dione] | ≥ 6.30 | ≥ 6.30 |
| CC1(C)CNc2nccc(CN3C(=O)N(c4ccc(SC(F)(F)F)cc4)C(=O)C3(C)C)c21 [Compound 20, 1-((3,3-dimethyl-2,3-dihydro-1H-pyrrolo[2,3-b]pyridin-4-yl)methyl)-5,5-dimethyl-3-(4-((trifluoromethyl)thio)phenyl)imidazolidine-2,4-dione] | ≥ 6.30 | ≥ 6.30 |
| CC1(C)Cc2c(CN3C(=O)N(c4ccc(SC(F)(F)F)cc4)C(=O)C3(C)C)ccnc2N1 [Compound 21, 1-((2,2-dimethyl-2,3-dihydro-1H-pyrrolo[2,3-b]pyridin-4-yl)methyl)-5,5-dimethyl-3-(4-((trifluoromethyl)thio)phenyl)imidazolidine-2,4-dione] | ≥ 6.30 | ≥ 6.30 |
| CC1(C)C(=O)N(c2ccc(S(=O)(=O)C(F)(F)F)cc2)C(=O)N1Cc1ccnc2[nH]ccc12 [Compound 22, 1-((1H-pyrrolo[2,3-b]pyridin-4-yl)methyl)-5,5-dimethyl-3-(4-((trifluoromethyl)sulfonyl)phenyl) imidazolidine-2,4-dione] | ≥ 6.30 | ≥ 6.30 |
| CC1(C)C(=O)N(c2ccc(S(=O)(=O)C(F)(F)F)cc2)C(=O)N1Cc1ccnc2c1CC(=O)N2 [Compound 23, 5,5-dimethyl-1-((2-oxo-2,3-dihydro-1H-pyrrolo[2,3-b]pyridin-4-yl)methyl)-3-(4-((trifluoromethyl)sulfonyl)phenyl)imidazolidine-2,4-dione] | ≥ 6.30 | ≥ 6.30 |
| CC1(C)C(=O)N(c2ccc(C3(C(F)(F)F)CC3)cc2)C(=O)N1Cc1ccnc2c1C(F)(F)C(=O)N2 [Compound 24, 1-((3,3-difluoro-2-oxo-2,3-dihydro-1H-pyrrolo[2,3-b]pyridin-4-yl)methyl)-5,5-dimethyl-3-(4-(1-(trifluoromethyl)cyclopropyl)phenyl) imidazolidine-2,4-dione] | ≥ 6.30 | ≥ 6.30 |
| C[C@@H]1COc2c(CN3C(=O)N(c4ccc(C5(C(F)(F)F)CC5)cc4)C(=O)C3(C)C)ccnc2N1 [Compound 25, (R)-5,5-dimethyl-1-((3-methyl-3,4-dihydro-2H-pyrido[3,2-b][1,4]oxazin-8-yl)methyl)-3-(4-(1-(trifluoromethyl)cyclopropyl)phenyl) imidazolidine-2,4-dione] | ≥ 6.30 | ≥ 6.30 |
| CC(C)Nc1cc(CN2C(=O)N(c3ccc(C4(C(F)(F)F)CC4)cc3)C(=O)C2(C)C)ccn1 [Compound 84, 1-((2-(isopropylamino)pyridin-4-yl)methyl)-5,5-dimethyl-3-(4-(1-(trifluoromethyl)cyclopropyl)phenyl)imidazolidine-2,4-dione] | ≥ 6.30 | ≥ 6.30 |
| CC(C)(O)c1ccc(N2C(=O)N(Cc3ccnc(N)c3)C(C)(C)C2=O)cc1 [Compound 88, 1-((2-aminopyridin-4-yl)methyl)-3-(4-(2-hydroxypropan-2-yl)phenyl)-5,5-dimethylimidazolidine-2,4-dione] | 5.70 to 6.30 | 5.00 to 5.70 |
| CC1(C)C(=O)N(c2ccc(C3(C(F)(F)F)CC3)cc2)C(=O)N1Cc1ccnc(NC2CC2)c1 [Compound 93, 1-((2-(cyclopropylamino)pyridin-4-yl)methyl)-5,5-dimethyl-3-(4-(1-(trifluoromethyl)cyclopropyl)phenyl)imidazolidine-2,4-dione] | ≥ 6.30 | ≥ 6.30 |
| CC(C)Nc1cc(CN2C(=O)N(c3ccc(C4CC45CC5)cc3)C(=O)C2(C)C)ccn1 (stereo not shown) [Compound 97, 1-((2-(isopropylamino)pyridin-4-yl)methyl)-5,5-dimethyl-3-(4-(spiro[2.2]pentan-1-yl)phenyl)imidazolidine-2,4-dione] | ≥ 6.30 | ≥ 6.30 |
| CC(C)Nc1cc(CN2C(=O)N(c3ccc(C4(C)CC4)cc3)C(=O)C2(C)C)ccn1 [Compound 98, 1-((2-(isopropylamino)pyridin-4-yl)methyl)-5,5-dimethyl-3-(4-(1-methylcyclopropyl)phenyl)imidazolidine-2,4-dione] | ≥ 6.30 | ≥ 6.30 |
| COC1(c2ccc(N3C(=O)N(Cc4ccnc(NC(C)C)c4)C(C)(C)C3=O)cc2)CC1 [Compound 104, 1-((2-(isopropylamino)pyridin-4-yl)methyl)-3-(4-(1-methoxycyclopropyl)phenyl)-5,5-dimethylimidazolidine-2,4-dione] | ≥ 6.30 | 5.70 to 6.30 |
| CC1(C)C(=O)N(c2ccc(SC(F)(F)F)cc2)C(=O)N1Cc1cc(N)ncn1 [Compound 396, 1-((6-aminopyrimidin-4-yl)methyl)-5,5-dimethyl-3-(4-((trifluoromethyl)thio)phenyl) imidazolidine-2,4-dione] | ≥ 6.30 | – |
| CC1(C)C(=O)N(c2ccc(SC(F)(F)F)cc2)C(=O)N1Cc1ccnc(NC(=O)Nc2cccnc2)c1 [Compound 397, 1-(4-((5,5-dimethyl-2,4-dioxo-3-(4-((trifluoromethyl)thio)phenyl)imidazolidin-1-yl)methyl)pyridin-2-yl)-3-(pyridin-3-yl)urea] | ≥ 6.30 | – |
| CC1(C)C(=O)N(c2ccc(SC(F)(F)F)cc2)C(=O)N1Cc1ccnc(NC(=O)Nc2ccncc2)c1 [Compound 398, 1-(4-((5,5-dimethyl-2,4-dioxo-3-(4-((trifluoromethyl)thio)phenyl)imidazolidin-1-yl)methyl)pyridin-2-yl)-3-(pyridin-4-yl)urea] | ≥ 6.30 | – |
| CC1(C)C(=O)N(c2ccc(SC(F)(F)F)cc2)C(=O)N1Cc1ccnc(Nc2ncccn2)c1 [Compound 399, 5,5-dimethyl-1-((2-(pyrimidin-2-ylamino)pyridin-4-yl)methyl)-3-(4-((trifluoromethyl)thio)phenyl) imidazolidine-2,4-dione] | ≥ 6.30 | – |
| CC1(C)C(=O)N(c2ccc(SC(F)(F)F)cc2)C(=O)N1CCc1cn[nH]c1 [Compound 400, 1-(2-(1H-pyrazol-4-yl)ethyl)-5,5-dimethyl-3-(4-((trifluoromethyl)thio)phenyl) imidazolidine-2,4-dione] | 5.00 to 5.70 | – |
| CC1(C)CNc2cc(N3C(=O)N(Cc4ccnc(N)c4)C(C)(C)C3=O)ccc21 [Compound 401, 1-((2-aminopyridin-4-yl)methyl)-3-(3,3-dimethylindolin-6-yl)-5,5-dimethylimidazolidine-2,4-dione] | ≥ 6.30 | – |
| CC1(C)CNc2ncc(CN3C(=O)N(c4ccc(SC(F)(F)F)cc4)C(=O)C3(C)C)cc21 [Compound 405, 1-((3,3-dimethyl-2,3-dihydro-1H-pyrrolo[2,3-b]pyridin-5-yl)methyl)-5,5-dimethyl-3-(4-((trifluoromethyl)thio)phenyl) imidazolidine-2,4-dione] | 5.00 to 5.70 | – |
| Cc1c[nH]c2ncc(CN3C(=O)N(c4ccc(SC(F)(F)F)cc4)C(=O)C3(C)C)cc12 [Compound 406, 5,5-dimethyl-1-((3-methyl-1H-pyrrolo[2,3-b]pyridin-5-yl)methyl)-3-(4-((trifluoromethyl)thio)phenyl) imidazolidine-2,4-dione] | 5.00 to 5.70 | – |
